Experimental data: patent publication US7417052B2, “Phenylene derivative having tetrazole ring or thiazolidinedione ring” (Sankyo Company, Limited, priority 2003, dated 2008)

Test system: pentosidine (AGEs) formation in serum of kidney failure patients
Assay: AGEs formation inhibitory effect (pentosidine production in serum protein, HPLC)
Type: biochemical, human
Settings: test compound final concentration 5 mM, incubated at 37° C. for one week, proportion to pentosidine production amount by control
Method: AGEs Formation Inhibitory Effect
A solution (50 μl) of the test compound (final concentration 5 mM) in dimethyl sulfoxide was added to a protein (450 μl, serum of kidney failure patients who gave informed consent), and the mixture was incubated at 37° C. for one week. Pentosidine, which is one of the AGEs produced, was measured as follows. To separate pentosidine produced in the protein, 10% trichloroacetic acid (50 μl) was added to the sample after the reaction (50 μl) and the mixture was centrifuged and the precipitated protein was recovered. The recovered protein was washed with 300 μl of 5% trichloroacetic acid, dried and hydrolyzed with 6N hydrochloric acid (100 μl) at 110° C. for 16 hrs. The amount (nmol/l) of pentosidine produced was measured by HPLC (ODS C18, 4.6×250 mm, 335 nm, 385 nm) using a fluorescence detector by the gradient of 30 min., 1.0 ml/min with 0.1% trifluoroacetic acid added distilled water/0.08% trifluoroacetic acid added 80% acetonitrile as a mobile phase (Miyata, T et al.: J. Am. Soc. Nephrol., 7, 1198-1206, 1996, and Miyata, T. et al.: Proc. Natl. Acad. Sci. USA, 93 2353-2358, 1996).
To study AGEs formation inhibitory effect, the proportion of the aforementioned pentosidine production amount to the pentosidine production amount by control was calculated as pentosidine production rate (%).

| Compound | pentosidine production rate (%) |
| --- | --- |
| CC(=O)N(Cc1ccc(-c2ccccc2-c2nnn[nH]2)cc1)c1cccc(C(=O)O)c1 [Example 2, 3-[N-[[4-[2-(1H-tetrazol-5-yl)phenyl]phenyl]methyl]-N-acetylamino]benzoic acid] | 26.1 |
| CCCC1Cc2cc(C(=O)O)ccc2N(Cc2ccc(-c3ccccc3-c3nnn[nH]3)cc2)C1=O (stereo not shown) [Example 11, 2-oxo-3-propyl-1-[[4-[2-(1H-tetrazol-5-yl)phenyl]phenyl]methyl]-1,3,4-trihydroquinoline-6-carboxylic acid] | 24.9 |
| CCCC1Sc2ccc(C(=O)O)cc2N(Cc2ccc(-c3ccccc3-c3nnn[nH]3)cc2)C1=O (stereo not shown) [Example 16, 3-oxo-2-propyl-4-[[4-[2-(1H-tetrazol-5-yl)phenyl]phenyl]methyl]-2H-benzo[e]1,4-thiazine-6-carboxylic acid] | 25.8 |
| CCc1nc2c(C)cc(C)nc2n1Cc1ccc(C2SC(=O)NC2=O)cc1 (stereo not shown) [Example 18, 5-[4-[(2-ethyl-5,7-dimethylimidazo[4,5-b]pyridin-3-yl)methyl]phenyl]-1,3-thiazolidine-2,4-dione] | 18.0 |
| CCCC1Sc2ccc(C(=O)O)cc2N(Cc2ccc(-c3nnn[nH]3)cc2)C1=O (stereo not shown) [Example 17, 3-oxo-2-propyl-4-[[4-(1H-tetrazol-5-yl)phenyl]methyl]2-H-benzo[e]1,4-thiazine-6-carboxylic acid] | 35.0 |
| CCCCC(=O)N(Cc1ccc(-c2ccccc2-c2nnn[nH]2)cc1)c1ccc(C(=O)O)cc1 [Example 9, 4-[N-[[4-[2-(1H-tetrazol-5-yl)phenyl]phenyl]methyl]-N-pentanoylamino]benzoic acid] | 30.8 |
| CCCCC(=O)N(Cc1ccc(-c2ccccc2-c2nnn[nH]2)cc1)c1cccc(C(=O)OCc2oc(=O)oc2C)c1 [Example 6, (5-methyl-2-oxo-1,3-dioxolen-4-yl)methyl3-[N-[[4-[2-(1H-tetrazol-5-yl)phenyl]phenyl]methyl]-N-pentanoylamino]benzoate] | 16.8 |
| CCCC1Oc2ccc(C(=O)O)cc2N(Cc2ccc(-c3ccccc3-c3nnn[nH]3)cc2)C1=O (stereo not shown) [Example 14, 3-oxo-2-propyl-4-[[4-[2-(1H-tetrazol-5-yl)phenyl]phenyl]methyl]-2H-benzo[e]1,4-oxazine-6-carboxylic acid] | 22.1 |
| CCCCCCCC(=O)N(Cc1ccc(-c2ccccc2-c2nnn[nH]2)cc1)c1cccc(C(=O)O)c1 [Example 5, 3-[N-[[4-[2-(1H-tetrazol-5-yl)phenyl]phenyl]methyl]-N-octanoylamino]benzoic acid] | 9.33 |
| CCCCC(=O)N(Cc1ccc(-c2nnn[nH]2)cc1)c1cccc(C(=O)O)c1 [Example 7, 3-[N-[[4-(1H-tetrazol-5-yl)phenyl]methyl]-N-pentanoylamino]benzoic acid] | 27.2 |
| CCCCC(=O)N(Cc1ccc(-c2ccccc2-c2nnn[nH]2)cc1)c1ccccc1C(=O)O [Example 8, 2-[N-[[4-[2-(1H-tetrazol-5-yl)phenyl]phenyl]methyl]-N-pentanoylamino]benzoic acid] | 23.5 |
| CCCC1Cc2ccc(C(=O)O)cc2N(Cc2ccc(-c3ccccc3-c3nnn[nH]3)cc2)C1=O (stereo not shown) [Example 10, 2-oxo-3-propyl-1-[[4-[2-(1H-tetrazol-5-yl)phenyl]phenyl]methyl]-1,3,4-trihydroquinoline-7-carboxylic acid] | 18.0 |
| CCCC1Oc2ccc(C(=O)O)cc2N(Cc2ccc(-c3nnn[nH]3)cc2)C1=O (stereo not shown) [Example 15, 3-oxo-2-propyl-4-[4-[4-(1H-tetrazol-5-yl)phenyl]methyl]2-H-benzo[e]1,4-oxazine-6-carboxylic acid] | 23.8 |
| CCCCC(=O)N(Cc1ccc(-c2ccccc2-c2nnn[nH]2)cc1)c1cccc(C(=O)O)c1 [Example 1, 3-[N-[[4-[2-(1H-tetrazol-5-yl)phenyl]phenyl]methyl]-N-pentanoylamino]benzoic acid] | 18.1 |
| CCC(=O)N(Cc1ccc(-c2ccccc2-c2nnn[nH]2)cc1)c1cccc(C(=O)O)c1 [Example 3, 3-[N-[[4-[2-(1H-tetrazol-5-yl)phenyl]phenyl]methyl]-N-propanoylamino]benzoic acid] | 21.3 |
| CCCCC(=O)N(Cc1ccc(C2SC(=O)NC2=O)cc1)c1cccc(C(=O)O)c1 (stereo not shown) [Example 22, 3-[N-[4-(2,4-dioxothiazolidin-5-yl)benzyl]-N-pentanoylamino]benzoic acid] | 12.4 |
| CCCC(=O)N(Cc1ccc(-c2ccccc2-c2nnn[nH]2)cc1)c1cccc(C(=O)O)c1 [Example 4, 3-[N-[[4-[2-(1H-tetrazol-5-yl)phenyl]phenyl]methyl]-N-butanoylamino]benzoic acid] | 17.4 |
| CCCc1nc2c(C)cc(C)nc2n1Cc1ccc(C2SC(=O)NC2=O)cc1 (stereo not shown) [Example 19, 5-[4-[(5,7-dimethyl-2-propylimidazo[4,5-b]pyridin-3-yl)methyl]phenyl]-1,3-thiazolidine-2,4-dione] | 23.8 |
| O=C1CCc2ccccc2N1Cc1ccc(-c2ccccc2-c2nnn[nH]2)cc1 [Example 13, 1-[[4-[2-(1H-tetrazol-5-yl)phenyl]phenyl]methyl]-1,3,4-trihydroquinolin-2-one] | 45.4 |
| CCCC1Cc2ccc(C(=O)OCc3oc(=O)oc3C)cc2N(Cc2ccc(-c3ccccc3-c3nnn[nH]3)cc2)C1=O (stereo not shown) [Example 12, (5-methyl-2-oxo-1,3-dioxolen-4-yl)methyl2-oxo-3-propyl-1-[[4-[2-(1H-tetrazol-5-yl)phenyl]phenyl]methyl]-1,3,4-trihydroquinoline-7-carboxylate] | 29.0 |

Test system: not given
Assay: not given
Settings: not given

| Compound | melting point [°C] |
| --- | --- |
| CCc1nc2c(C)cc(C)nc2n1Cc1ccc(C2SC(=O)NC2=O)cc1 (stereo not shown) [Example 18, 5-[4-[(2-ethyl-5,7-dimethylimidazo[4,5-b]pyridin-3-yl)methyl]phenyl]-1,3-thiazolidine-2,4-dione] | 221 to 222 |
| CCCC1Oc2ccc(C(=O)O)cc2N(Cc2ccc(-c3ccccc3-c3nnn[nH]3)cc2)C1=O (stereo not shown) [Example 14, 3-oxo-2-propyl-4-[[4-[2-(1H-tetrazol-5-yl)phenyl]phenyl]methyl]-2H-benzo[e]1,4-oxazine-6-carboxylic acid] | 197 to 198 |
